Laboratory results reported in publication PMC4363092 (Journal of medicinal chemistry, 2014).
Where “and” joins values, the source holds several entries; their conditions need not be identical. Identical values can stand only once. Entries after “also recorded” stand apart in the source; their conditions may differ. Like-named read-outs stand apart in the source and are kept apart here.

How the values were obtained:
P2Y11 receptor [1] = settings: cited from earlier work; for potency relative to ATP at the P2Y11 receptor: higher potency than ATP
NPP1 = settings: cited from earlier work; for Ki: read-out: Ki, NPP1
human NTPDase3 = target: T1, human NTPDase3 (Homo sapiens, UniProt O75355); settings: analogue 100 μM as substrate; activity with 100 μM ATP set as 100%
T1 sequence (O75355 1-529): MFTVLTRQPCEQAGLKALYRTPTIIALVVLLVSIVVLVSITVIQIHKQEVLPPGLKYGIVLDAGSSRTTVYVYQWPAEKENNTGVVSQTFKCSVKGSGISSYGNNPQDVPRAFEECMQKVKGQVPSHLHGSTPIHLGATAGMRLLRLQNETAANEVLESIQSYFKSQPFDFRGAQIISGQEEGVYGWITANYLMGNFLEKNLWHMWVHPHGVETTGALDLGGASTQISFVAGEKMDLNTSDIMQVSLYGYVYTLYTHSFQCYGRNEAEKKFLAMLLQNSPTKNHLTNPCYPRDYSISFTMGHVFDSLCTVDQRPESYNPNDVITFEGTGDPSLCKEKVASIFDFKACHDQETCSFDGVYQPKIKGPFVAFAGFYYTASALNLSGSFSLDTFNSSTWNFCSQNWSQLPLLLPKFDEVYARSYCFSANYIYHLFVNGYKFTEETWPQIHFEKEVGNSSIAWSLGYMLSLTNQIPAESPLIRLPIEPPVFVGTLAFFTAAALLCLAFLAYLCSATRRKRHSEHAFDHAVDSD

human NTPDase1,2,3,8 = assay: Inhibition of NTPDase activity, text statements pooled over NTPDase1,2,3,8; format: biochemical; settings: analogue 100 μM, pooled over four NTPDases
P2Y11 receptor [2] = target: T2, P2Y11 receptor (Homo sapiens, UniProt Q96G91); assay: [Ca2+]i elevation in 1321N1 astrocytoma cells expressing GFP-P2Y11 receptor; format: cell-based; settings: for potency relative to ATP at the P2Y11 receptor: more potent than ATP
T2 sequence (Q96G91 1-374): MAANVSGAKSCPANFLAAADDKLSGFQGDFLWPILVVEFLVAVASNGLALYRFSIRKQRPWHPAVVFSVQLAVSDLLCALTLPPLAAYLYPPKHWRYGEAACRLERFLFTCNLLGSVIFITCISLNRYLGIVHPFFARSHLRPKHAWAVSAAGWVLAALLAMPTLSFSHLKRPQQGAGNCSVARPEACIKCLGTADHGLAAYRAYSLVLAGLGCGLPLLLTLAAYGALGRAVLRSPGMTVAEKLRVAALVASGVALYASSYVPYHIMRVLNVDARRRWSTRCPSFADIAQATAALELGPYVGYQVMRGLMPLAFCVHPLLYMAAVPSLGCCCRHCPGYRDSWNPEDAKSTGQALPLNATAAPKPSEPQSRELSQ

human NTPDase2 = target: T3, human NTPDase2 (Homo sapiens, UniProt Q9Y5L3); settings: analogue 100 μM as substrate; activity with 100 μM ATP set as 100%
T3 sequence (Q9Y5L3 1-495): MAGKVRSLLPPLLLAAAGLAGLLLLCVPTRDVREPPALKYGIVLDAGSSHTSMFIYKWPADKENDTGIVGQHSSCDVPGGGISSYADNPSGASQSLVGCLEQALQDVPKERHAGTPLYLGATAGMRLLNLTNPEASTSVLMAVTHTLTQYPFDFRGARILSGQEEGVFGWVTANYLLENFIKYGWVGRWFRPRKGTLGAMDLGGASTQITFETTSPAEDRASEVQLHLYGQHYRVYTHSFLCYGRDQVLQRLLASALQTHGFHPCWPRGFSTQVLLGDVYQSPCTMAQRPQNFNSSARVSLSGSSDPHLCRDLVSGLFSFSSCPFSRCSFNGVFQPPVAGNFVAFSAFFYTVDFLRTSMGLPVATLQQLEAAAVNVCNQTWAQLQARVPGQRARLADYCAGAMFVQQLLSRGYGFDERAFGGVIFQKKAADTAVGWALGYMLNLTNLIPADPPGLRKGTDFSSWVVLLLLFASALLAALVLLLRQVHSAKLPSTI

human NTPDase1 = target: T4, human NTPDase1 (Homo sapiens, UniProt P49961); settings: analogue 100 μM as substrate; activity with 100 μM ATP set as 100%
T4 sequence (P49961 1-510): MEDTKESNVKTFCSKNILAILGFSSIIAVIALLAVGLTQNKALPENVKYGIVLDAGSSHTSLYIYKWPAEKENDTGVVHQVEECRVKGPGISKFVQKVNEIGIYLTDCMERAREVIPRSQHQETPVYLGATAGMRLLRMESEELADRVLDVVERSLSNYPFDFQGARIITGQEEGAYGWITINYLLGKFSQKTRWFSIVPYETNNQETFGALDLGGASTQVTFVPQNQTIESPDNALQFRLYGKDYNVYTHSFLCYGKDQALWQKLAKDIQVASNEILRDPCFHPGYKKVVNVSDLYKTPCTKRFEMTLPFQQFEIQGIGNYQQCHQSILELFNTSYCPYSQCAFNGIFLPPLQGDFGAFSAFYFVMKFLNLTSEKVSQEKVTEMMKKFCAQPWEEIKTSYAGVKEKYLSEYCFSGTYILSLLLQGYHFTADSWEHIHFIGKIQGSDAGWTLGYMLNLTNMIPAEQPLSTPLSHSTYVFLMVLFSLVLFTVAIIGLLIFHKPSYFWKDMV

human NTPDase8 = target: T5, human NTPDase8 (Homo sapiens, UniProt Q5MY95); settings: analogue 100 μM as substrate; activity with 100 μM ATP set as 100%
T5 sequence (Q5MY95 1-495): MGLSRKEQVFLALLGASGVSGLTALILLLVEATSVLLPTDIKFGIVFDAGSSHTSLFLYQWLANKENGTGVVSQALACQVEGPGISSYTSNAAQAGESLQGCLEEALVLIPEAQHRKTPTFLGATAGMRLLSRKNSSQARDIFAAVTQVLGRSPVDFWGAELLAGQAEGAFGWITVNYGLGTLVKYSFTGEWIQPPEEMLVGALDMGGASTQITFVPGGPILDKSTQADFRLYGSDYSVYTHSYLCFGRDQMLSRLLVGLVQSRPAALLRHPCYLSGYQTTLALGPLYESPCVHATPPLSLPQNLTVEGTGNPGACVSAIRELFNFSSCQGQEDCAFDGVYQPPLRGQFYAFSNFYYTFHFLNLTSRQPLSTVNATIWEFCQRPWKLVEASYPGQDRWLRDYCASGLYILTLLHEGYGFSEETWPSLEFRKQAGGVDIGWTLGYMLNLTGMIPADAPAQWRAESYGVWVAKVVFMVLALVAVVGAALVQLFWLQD

human NPP1 = target: T6, human NPP1 (Homo sapiens, UniProt P22413); assay: Inhibition of NPP1, pNP-TMP as substrate; format: biochemical; settings: Dixon and Cornish–Bowden methods
T6 sequence (P22413 1-925): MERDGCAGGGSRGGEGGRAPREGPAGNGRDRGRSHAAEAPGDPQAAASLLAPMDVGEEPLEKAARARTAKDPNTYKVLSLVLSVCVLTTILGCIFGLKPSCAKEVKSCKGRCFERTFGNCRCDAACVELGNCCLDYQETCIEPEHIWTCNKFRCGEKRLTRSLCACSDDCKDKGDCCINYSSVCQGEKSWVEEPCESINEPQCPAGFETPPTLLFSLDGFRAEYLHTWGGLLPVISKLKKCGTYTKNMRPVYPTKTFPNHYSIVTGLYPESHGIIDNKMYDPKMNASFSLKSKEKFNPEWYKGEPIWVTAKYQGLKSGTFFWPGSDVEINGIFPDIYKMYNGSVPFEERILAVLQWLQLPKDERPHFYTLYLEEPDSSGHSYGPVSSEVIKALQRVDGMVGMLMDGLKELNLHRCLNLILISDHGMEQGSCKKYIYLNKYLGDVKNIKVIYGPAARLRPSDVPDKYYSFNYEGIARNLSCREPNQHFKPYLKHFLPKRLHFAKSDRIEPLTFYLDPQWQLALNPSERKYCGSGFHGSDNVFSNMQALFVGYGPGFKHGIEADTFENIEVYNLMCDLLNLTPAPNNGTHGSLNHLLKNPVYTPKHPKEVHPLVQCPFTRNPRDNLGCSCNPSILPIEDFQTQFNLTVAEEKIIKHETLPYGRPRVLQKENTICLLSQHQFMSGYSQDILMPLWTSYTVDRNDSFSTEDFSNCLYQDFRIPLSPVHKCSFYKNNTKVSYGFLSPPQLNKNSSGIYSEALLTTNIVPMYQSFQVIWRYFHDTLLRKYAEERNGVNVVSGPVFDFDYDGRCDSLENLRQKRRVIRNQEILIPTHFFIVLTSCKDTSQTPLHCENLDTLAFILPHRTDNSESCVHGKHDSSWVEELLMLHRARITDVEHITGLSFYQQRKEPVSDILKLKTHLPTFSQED

SMILES | relative activity (%) ± SD of ATP hydrolysis, NTPDase3 (human NTPDase3) | inhibition of ATP hydrolysis by NTPDase1,2,3,8 (human NTPDase1,2,3,8) | relative activity (%) ± SD of ATP hydrolysis, NTPDase2 (human NTPDase2) | relative activity (%) ± SD of ATP hydrolysis, NTPDase1 (human NTPDase1) | relative activity (%) ± SD of ATP hydrolysis, NTPDase8 (human NTPDase8) | also measured
CCCSc1nc(N)c2ncn([C@@H]3O[C@H](COP(O)(=S)OP(=O)(O)C(Cl)(Cl)P(=O)(O)O)[C@@H](O)[C@H]3O)c2n1 (single isomer, unassigned; isomer a) [2-(propylthio)adenosine 5′-α-thio-β,γ-(dichloromethylene)-triphosphate, isomer A, 2-(propylthio)adenosine 5′-α-thio-β,γ-(dichloromethylene)-triphosphate] |  |  |  |  |  | potency relative to ATP at the P2Y11 receptor (P2Y11 receptor [1]): ~ 3 fold
BP(=O)(OC[C@H]1O[C@@H](n2cnc3c(N)ncnc32)[C@H](O)[C@@H]1O)OP(=O)(O)CP(=O)(O)O (single isomer, unassigned; isomer a) [adenosine 5′-α-borano-β,γ-methylenetriphosphate (isomer A), adenosine 5′-α-borano-β,γ-methylenetriphosphate] |  |  |  |  |  | Ki (NPP1; ref 22 (b65 prints ref 44)): 0.5 µM
CCCSc1nc(N)c2ncn([C@@H]3O[C@H](COP(O)(=S)OP(=O)(O)C(Cl)(Cl)P(=O)(O)O)[C@@H](O)[C@H]3O)c2n1 (single isomer, unassigned; isomer b) [2-(propylthio)adenosine 5′-α-thio-β,γ-(dichloromethylene)-triphosphate, isomer B, 2-(propylthio)adenosine 5′-α-thio-β,γ-(dichloromethylene)-triphosphate] |  |  |  |  |  | potency relative to ATP at the P2Y11 receptor (P2Y11 receptor [1]): ~ 4 fold
Nc1ncnc2c1ncn2[C@@H]1O[C@H](CO[P@](O)(=S)OP(=O)(O)CP(=O)(O)O)[C@@H](O)[C@H]1O [1a] | 4.2 ± 0.2% | did not interfere | 4.7 ± 1.7% | 4.4 ± 0.2% | 4.4 ± 0.2% | EC50 ± SEM (μM), [Ca^2+]i elevation, P2Y11 (P2Y11 receptor [2]; 1321N1 cells, nr = no response up to 10 μM): not agonists; also recorded: inactive; also recorded: not active, nr ^c
Nc1ncnc2c1ncn2[C@@H]1O[C@H](CO[P@@](O)(=S)OP(=O)(O)CP(=O)(O)O)[C@@H](O)[C@H]1O [1b] | 4.8 ± 0.2% | did not interfere | 5.5 ± 0.3% | 5.4 ± 0.2% | 5.3 ± 0.2% | potency relative to ATP at the P2Y11 receptor (P2Y11 receptor [2]): 7 fold and ~ 7 fold; type of inhibition (human NPP1): mixed-type inhibition, predominantly competitive
Nc1ncnc2c1ncn2[C@@H]1O[C@H](CO[P@@](O)(=S)OP(=O)(O)C(Cl)(Cl)P(=O)(O)O)[C@@H](O)[C@H]1O [2b] | 5.4 ± 0.2% | did not interfere | 5.5 ± 0.2% | 5.4 ± 0.2% | 5.3 ± 0.2% | EC50 (P2Y11 receptor [2]): 3 ± 1.46 µM; potency relative to ATP at the P2Y11 receptor (P2Y11 receptor [2]): 2 fold and ~ 2 fold; type of inhibition (human NPP1): mixed-type inhibition, predominantly competitive
Nc1ncnc2c1ncn2[C@@H]1O[C@H](CO[P@](=O)(O)O[P@](=O)(O)O[P@@](=O)(O)S)[C@@H](O)[C@H]1O [ATP-γ-S] |  |  |  |  |  | pEC50, P2Y11 receptor (P2Y11 receptor [1]): 5.52
Nc1ncnc2c1ncn2[C@H]1C[C@H](O)[C@@H](COP(=O)(O)CP(=O)(O)OP(=O)(O)OP(=O)(O)CP(=O)(O)OC[C@H]2O[C@@H](n3cnc4c(N)ncnc43)C[C@@H]2O)O1 [bis(2′-deoxyadenosine) α,β:δ,ε-dimethylenepentaphosphonate] |  |  |  |  |  | IC50 (NPP1; read-out: IC50, NPP1): 13 µM; Ki (NPP1): 9 µM
Nc1ncnc2c1nc(S)n2[C@@H]1O[C@H](COP(=O)(O)OP(=O)(O)OP(=O)(O)O)[C@@H](O)[C@H]1O [compound 4] | 51 ± 3% |  | 73 ± 2% | 43 ± 2% | 73 ± 1% | 
